Patent publication US20070037788A1, “Tricyclic steroid hormone nuclear receptor modulators” (Eli Lilly and Company, priority 2003, published 2007)

Molecular target: T1, human MR (Homo sapiens, UniProt P08235)
T1 construct: The full length human MR gene is cloned from a human kidney or human brain cDNA library; made in house; host or cells: SF9 insect cells (baculovirus)
T1 sequence (P08235 1-984): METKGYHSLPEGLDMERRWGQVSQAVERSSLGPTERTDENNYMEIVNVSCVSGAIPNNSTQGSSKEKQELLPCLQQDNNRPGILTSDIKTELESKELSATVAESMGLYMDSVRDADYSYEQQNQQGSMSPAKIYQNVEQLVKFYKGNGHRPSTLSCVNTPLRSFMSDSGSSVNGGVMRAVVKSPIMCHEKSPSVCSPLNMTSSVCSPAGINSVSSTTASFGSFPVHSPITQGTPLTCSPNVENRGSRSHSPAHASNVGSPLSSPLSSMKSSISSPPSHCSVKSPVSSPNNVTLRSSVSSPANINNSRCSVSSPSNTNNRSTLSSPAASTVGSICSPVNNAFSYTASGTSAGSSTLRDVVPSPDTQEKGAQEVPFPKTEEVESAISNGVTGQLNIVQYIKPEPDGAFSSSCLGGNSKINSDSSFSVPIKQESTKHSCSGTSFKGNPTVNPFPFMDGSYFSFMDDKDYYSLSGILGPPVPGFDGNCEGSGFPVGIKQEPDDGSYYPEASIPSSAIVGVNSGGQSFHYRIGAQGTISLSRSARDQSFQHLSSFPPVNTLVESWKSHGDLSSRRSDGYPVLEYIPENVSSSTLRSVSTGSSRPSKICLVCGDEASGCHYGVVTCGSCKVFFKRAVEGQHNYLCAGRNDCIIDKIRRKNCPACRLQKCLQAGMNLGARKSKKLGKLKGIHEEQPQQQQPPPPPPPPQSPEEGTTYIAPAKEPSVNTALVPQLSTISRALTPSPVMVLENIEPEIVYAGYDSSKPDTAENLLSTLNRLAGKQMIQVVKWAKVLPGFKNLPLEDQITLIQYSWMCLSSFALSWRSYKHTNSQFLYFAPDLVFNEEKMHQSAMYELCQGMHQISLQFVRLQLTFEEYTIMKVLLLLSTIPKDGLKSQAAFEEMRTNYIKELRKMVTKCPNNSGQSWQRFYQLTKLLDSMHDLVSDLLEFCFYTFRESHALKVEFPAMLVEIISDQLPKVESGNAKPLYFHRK
Experiment: Mineralocorticoid Receptor Binding Assay (Method 1)
Settings: [3H]-aldosterone
Procedure: The full length human MR gene is cloned from a human kidney or human brain cDNA library. Briefly, using synthetic oligonucleotide primers (Eli Lilly and Company, Indianapolis) directed to nucleotides 20-54 and 3700-3666 of the human MR, polymerase chain reaction (PCR) is performed under standard conditions using a human cDNA library. The PCR reaction is performed in a final volume of 50 μl containing about 1 μl of a 50× stock solution of polymerase; about 1 μl of a 50× stock solution of DNTP; about 5 μl of an appropriate PCR buffer; about 1 μl of each primer; about 5 μl of a H. kidney or H. brain cDNA library; and about 36 μl of water. The reaction is allowed to denature for about 30 seconds at 95 degrees Celsius, anneal for about 30 seconds at 55 degrees Celsius, and extend for about 5 minutes at 72 degrees Celsius, the sequence being repeated for a total of about 35 cycles. The desired PCR product (3.68 Kb) is confirmed by gel electrophoresis and subsequently cut from the gel and stored at about −20 degrees Celsius until extraction. To extract the cDNA product from the agarose gel, the QIAEX II Gel Extraction protocol (QIAGEN, Inc.) is employed according to the manufacturer's instructions. Following extraction, the MR cDNA is cloned into an appropriate cloning vector (Zero Blunt TOPO PCR Cloning Kit (Invitrogen, Inc.) and a pAcHLT-baculovirus transfer vector (B.D./Pharminogen), then expressed in SF9 insect cells, essentially according to manufacturer's instructions. Sf9 cells are grown at a scale where gram quantity cell pellets are obtained for subsequent use in the MR binding assay. Harvested cell pellets are lysed by repeated freeze-thaw cycles (about 4) in a suitable lysis buffer then centrifuged at about 1×10^3 G (with the supernatant being saved for future assays).
MR binding assays are performed in a final total volume of about 250 μl containing about 20-25 μg of protein and 0.5 nM of [^3H]-aldosterone plus varying concentrations of test compound or vehicle. The assay binding buffer consists of 30 mM sodium molybdate, 30 mM of TRIS-HCl, 5 mM sodium phosphate, 5 mM sodium pyrophosphate, and about 10% glycerol, pH=7.5.
Briefly, assays are prepared at RT in 96-well Falcon 3072 plates, each well containing 210 μl of binding buffer, 10 μl of [^3H]-aldosterone, 10 μl of test compound/vehicle, and 20 μl of the resuspended receptor protein extract. Incubations are carried out at 4 degrees Celsius with shaking for about 16 hours. 200 μl aliquots of each incubation are filtered onto Millipore HA 0.45 micron 96-well filter plates, pre-moistened with cold 30 mM TRIS-HCl. The filter plates are suctioned dry with vacuum and immediately washed 3× with cold 30 mM TRIS-HCl. The plates are then punched out and the amount of receptor-ligand complex is determined by liquid scintillation counting using 4 ml of Ready Protein Plus™ liquid scintillation cocktail.

SMILES | Ki [µM]
CCN1CC[C@H](n2c(=O)[nH]c3cc(/C=C4/c5ccc(F)cc5OCc5c(F)cccc54)ccc32)C1 [Example 44] | < 0.5
CN1CC[C@H](n2c(=O)[nH]c3cc(/C=C4/c5ccc(F)cc5OCc5c(F)cccc54)ccc32)C1 [Example 45] | < 0.5
CCN1CC[C@@H](n2c(=O)[nH]c3cc(/C=C4/c5ccc(F)cc5OCc5c(F)cccc54)ccc32)C1 [Example 46] | < 0.5
